This note sets out measurements from patent publication US20090264427A1, “3-Cyanoquinolines, Methods for Preparation and Use as Insulin-like Growth Factor Inhibitors” (Wyeth, priority 2008, published 2009).

T1 sequence (P08069 31-1367): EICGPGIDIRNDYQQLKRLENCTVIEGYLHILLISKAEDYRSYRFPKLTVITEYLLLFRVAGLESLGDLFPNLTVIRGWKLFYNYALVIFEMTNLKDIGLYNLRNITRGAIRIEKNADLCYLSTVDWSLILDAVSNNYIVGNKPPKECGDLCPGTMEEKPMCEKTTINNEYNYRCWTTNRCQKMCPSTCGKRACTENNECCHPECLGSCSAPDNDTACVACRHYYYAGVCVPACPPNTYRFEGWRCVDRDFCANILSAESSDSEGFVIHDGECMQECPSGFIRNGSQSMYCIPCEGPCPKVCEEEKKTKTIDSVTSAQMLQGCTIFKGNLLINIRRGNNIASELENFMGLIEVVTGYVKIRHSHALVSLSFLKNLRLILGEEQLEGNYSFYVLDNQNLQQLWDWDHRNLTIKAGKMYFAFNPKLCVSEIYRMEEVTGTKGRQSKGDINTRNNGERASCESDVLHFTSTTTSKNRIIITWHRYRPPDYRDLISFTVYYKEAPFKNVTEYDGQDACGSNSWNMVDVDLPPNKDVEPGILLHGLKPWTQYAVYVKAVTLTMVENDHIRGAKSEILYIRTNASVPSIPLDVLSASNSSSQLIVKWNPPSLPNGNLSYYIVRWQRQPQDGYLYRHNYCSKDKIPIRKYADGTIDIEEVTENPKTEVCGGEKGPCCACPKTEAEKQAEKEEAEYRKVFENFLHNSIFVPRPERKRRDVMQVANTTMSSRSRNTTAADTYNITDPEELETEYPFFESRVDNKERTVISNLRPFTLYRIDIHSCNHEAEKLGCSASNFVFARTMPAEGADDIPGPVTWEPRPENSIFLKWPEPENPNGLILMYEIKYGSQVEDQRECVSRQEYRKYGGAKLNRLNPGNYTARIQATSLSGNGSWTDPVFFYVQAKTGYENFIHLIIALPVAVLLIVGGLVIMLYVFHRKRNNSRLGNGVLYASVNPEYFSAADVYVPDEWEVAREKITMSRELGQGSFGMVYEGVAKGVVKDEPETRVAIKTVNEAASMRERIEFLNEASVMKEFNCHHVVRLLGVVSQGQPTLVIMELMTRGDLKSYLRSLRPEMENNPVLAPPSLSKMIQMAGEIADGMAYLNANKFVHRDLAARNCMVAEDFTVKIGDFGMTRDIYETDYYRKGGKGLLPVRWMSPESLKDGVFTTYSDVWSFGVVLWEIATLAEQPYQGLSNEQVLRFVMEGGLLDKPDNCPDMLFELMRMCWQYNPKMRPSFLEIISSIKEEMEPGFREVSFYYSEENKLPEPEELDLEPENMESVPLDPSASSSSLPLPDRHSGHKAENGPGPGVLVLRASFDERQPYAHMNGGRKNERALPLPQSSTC

The first data set addresses T1, IGF1-receptor kinase (IGFR) (Homo sapiens, UniProt P08069).
T1 construct: GST (with thrombin cleavage site) (N); made in house; host or cells: ExpresSF insect cells
As to the kind of experiment: 96-well FRET (Lance) tyrosine kinase assay, IGFR. It counts as biochemical. The conditions noted are these: ATP 100 micromolar final, 1 hour reaction, enzyme form (GST-, Bis- or Tris-IGFR) not given.
The compound `CCn1c(Sc2ccc(Nc3c(C#N)cnc4cc(NCCCN5CCOCC5)c(OC)cc34)cc2Cl)nc(C)c1C` [Example 8, 4-({3-chloro-4-[(1-ethyl-4,5-dimethyl-1H-imidazol-2-yl)thio]phenyl}-amino)-6-methoxy-7-[(3-morpholin-4-ylpropyl)amino]-quinoline-3-carbonitrile] gave an IC50 of 13 nM. Same read-out and setting: next, `CCn1c(Sc2ccc(Nc3c(C#N)cnc4cc(OCCCN5CCOCC5)c(OC)cc34)cc2Cl)nc(C)c1C` [Example 24, 4-({3-chloro-4-[(1-ethyl-4,5-dimethyl-1H-imidazol-2-yl)thio]phenyl}amino)-6-methoxy-7-(3-morpholin-4-ylpropoxy)qquinoline-3-carbonitrile]: 22 nM; `CCn1c(Sc2ccc(Nc3c(C#N)cnc4cc(NCCCc5ccccc5)c(OC)cc34)cc2Cl)nc(C)c1C` [Example 7, 4-({3-Chloro-4-[(1-ethyl-4,5-dimethyl-1H-imidazol-2-yl)thio]phenyl}amino)-6-methoxy-7-[(3-phenylpropyl)amino]quinoline-3-carbonitrile]: 17200 nM. Same read-out and setting: next, `CCOC(=O)CN1CCN(CCCOc2cc3ncc(C#N)c(Nc4ccc(Sc5nc(C)c(C)n5CC)c(Cl)c4)c3cc2OC)CC1` [Example 22, ethyl [4-(3-{[4-({3-chloro-4-[(1-ethyl-4,5-dimethyl-1H-imidazol-2-yl)thio]phenyl}amino)-3-cyano-6-methoxyquinolin-7-yl]oxy}propyl)piperazin-1-yl]acetate]: 17 nM; `CCn1c(Sc2ccc(Nc3c(C#N)cnc4cc(OCCCN5CCN(C(C)=O)CC5)c(OC)cc34)cc2Cl)nc(C)c1C` [Example 27, 7-[3-(4-acetylpiperazin-1-yl)propoxy]-4-({3-chloro-4-[(1-ethyl-4,5-dimethyl-1H imidazol-2-yl)thio]phenyl}amino)-6-methoxyquinoline-3-carbonitrile]: 16 nM; `CCn1c(Sc2ccc(Nc3c(C#N)cnc4cc(NCCCN(CCO)CCO)c(OC)cc34)cc2Cl)nc(C)c1C` [Example 9, 7-({3-[bis(2-hydroxyethyl)amino]propyl}amino)-4-({3-chloro-4-[(1-ethyl-4,5-dimethyl-1H-imidazol-2-yl)thio]phenyl}amino)-6-methoxyquinoline-3-carbonitrile]: 21 nM. The compound `CCn1c(Sc2ccc(Nc3c(C#N)cnc4cc(OCCCN5CCC(O)CC5)c(OC)cc34)cc2Cl)nc(C)c1C` [Example 26, 4-({3-chloro-4-[(1-ethyl-4,5-dimethyl-1H-imidazol-2-yl)thio]phenyl}amino)-7-[3-(4-hydroxypiperidin-1-yl)propoxy]-6-methoxyquinoline-3-carbonitrile] had an IC50 of 47 nM. The compound `COc1cc2c(Nc3ccc(Sc4nc5cc(C)ccc5n4C)c(Cl)c3)c(C#N)cnc2cc1NCCCN(C)C` [Example 3, 4-({3-chloro-4-[(1,5-dimethyl-1H-benzimidazol-2-yl)thio]phenyl}amino)-7-{[3-(dimethylamino)propyl]amino}-6-methoxyquinoline-3-carbonitrile] gave an IC50 of 291 nM.

As to `CCN1CCN(CCCOc2cc3ncc(C#N)c(Nc4ccc(Sc5nc(C)c(C)n5CC)c(Cl)c4)c3cc2OC)CC1` [Example 17, 4-({3-Chloro-4-[(1-ethyl-4,5-dimethyl-1H-imidazol-2-yl)sulfanyl]phenyl}amino)-7-[3-(4-ethyl-1-piperazinyl)propoxy]-6-methoxy-3-quinolinecarbonitrile], it took 5 nM to reach half-maximal inhibition (IC50).

The compound `COc1cc2c(Nc3ccc(Sc4nc(C)c(C)n4C)c(Br)c3)c(C#N)cnc2cc1NCCCN(C)C` [Example 5, 4-({3-bromo-4-[(1,4,5-trimethyl-1H-imidazol-2-yl)thio]phenyl}amino)-7-{[3-(dimethylamino)-propyl]amino}-6-methoxy-quinoline-3-carbonitrile] had an IC50 of 30 nM. Consider `CCn1c(Sc2ccc(Nc3c(C#N)cnc4cc(OCCCN(CCO)C(C)(C)C)c(OC)cc34)cc2Cl)nc(C)c1C` [Example 11, 7-{3-[tert-butyl(2-hydroxy-ethyl)amino]propoxy}-4-({3-chloro-4-[(1-ethyl-4,5-dimethyl-1H-imidazol-2-yl)thio]phenyl}amino)-6-methoxyquinoline-3-carbonitrile], for which the IC50 was determined as 24 nM. `CCOC(=O)C1CCN(CCCOc2cc3ncc(C#N)c(Nc4ccc(Sc5nc(C)c(C)n5CC)c(Cl)c4)c3cc2OC)CC1` [Example 15, ethyl 1-(3-{[4-({3-chloro-4-[(1-ethyl-4,5-dimethyl-1H-imidazol-2-yl)thio]phenyl}amino)-3-cyano-6-methoxyquinolin-7-yl]oxy}propyl)-piperidine-4-carboxylate] registered an IC50 of 142 nM. Still for that read-out and setting: the figure for `CCn1c(Sc2ccc(Nc3c(C#N)cnc4cc(OCCCN5CCC(O)C5)c(OC)cc34)cc2Cl)nc(C)c1C` (stereo not drawn) [Example 20, 4-({3-chloro-4-[(1-ethyl-4,5-dimethyl-1H-imidazol-2-yl)thio]phenyl}amino)-7-[3-(3-hydroxypyrrolidin-1-yl)propoxy]-6-methoxyquinoline-3-carbonitrile] is 20 nM; for `CCn1c(Sc2ccc(Nc3c(C#N)cnc4cc(OCCCNS(C)(=O)=O)c(OC)cc34)cc2Cl)nc(C)c1C` [Example 16, N-(3-{[4-({3-chloro-4-[(1-ethyl-4,5-dimethyl-1H-imidazol-2-yl)thio]phenyl]amino)-3-cyano-6-methoxyquinolin-7-yl]oxy}propyl)-methanesulfonamide] it is 35 nM. In turn, `CCOC(=O)N1CCN(CCCOc2cc3ncc(C#N)c(Nc4ccc(Sc5nc(C)c(C)n5CC)c(Cl)c4)c3cc2OC)CC1` [Example 13, ethyl 4-(3-{[4-({3-chloro-4-[(1-ethyl-4,5-dimethyl-1H-imidazol-2-yl)thio]phenyl}amino)-3-cyano-6-methoxyquinolin-7-yl]oxy}propyl)-piperazine-1-carboxylate] registered an IC50 of 41 nM. `CCn1c(Sc2ccc(Nc3c(C#N)cnc4cc(OCCCN5CCN(CCO)CC5)c(OC)cc34)cc2Cl)nc(C)c1C` [Example 18, 4-({3-chloro-4-[(1-ethyl-4,5-dimethyl-1H-imidazol-2-yl)thio]-phenyl}amino)-7-{3-[4-(2-hydroxyethyl)piperazin-1-yl]propoxy}-6-methoxy-quinoline-3-carbonitrile] showed an IC50 of 11 nM. Consider `CCn1c(Sc2ccc(Nc3c(C#N)cnc4cc(OCCCNS(=O)(=O)c5ccccc5)c(OC)cc34)cc2Cl)nc(C)c1C` [Example 10, N-(3-{4-[3-chloro-4-(1-ethyl-4,5-dimethyl-1H-imidazol-2-ylsulfanyl)-phenylamino]-3-cyano-6-methoxy-quinolin-7-yloxy}-propyl)-benzenesulfonamide], for which the IC50 amounted to 3880 nM. Same read-out and setting: the figure for `COc1cc2c(Nc3ccc(Sc4nc(C)c(C)n4C)cc3)c(C#N)cnc2cc1NCCCN(C)C` [Example 6, 7-{[3-(dimethyl-amino)propyl]-amino}-6-methoxy-4-({4-[(1,4,5-trimethyl-1H imidazol-2-yl)thio]phenyl}amino)-quinoline-3-carbonitrile] is 394 nM; for `CCn1c(Sc2ccc(Nc3c(C#N)cnc4cc(NCCCN5CCN(C)CC5)c(OC)cc34)cc2Cl)nc(C)c1C` [Example 28, 4-[3-Chloro-4-(1-ethyl-4,5-dimethyl-1H-imidazol-2-ylsulfanyl)-phenylamino]-6-methoxy-7-[3-(4-methyl-piperazin-1-yl)-propylamino]-quinoline-3-carbonitrile] it is 2 nM. On the same count and under the same terms, next, `CCC1CCCCN1CCCOc1cc2ncc(C#N)c(Nc3ccc(Sc4nc(C)c(C)n4CC)c(Cl)c3)c2cc1OC` (stereo not drawn) [Example 14, 4-({3-chloro-4-[(1-ethyl-4,5-dimethyl-1H-imidazol-2-yl)thio]phenyl}amino)-7-[3-(2-ethylpiperidin-1-yl)propoxy]-6-methoxy-quinoline-3-carbonitrile]: 27 nM.

Tested on in another data set: not given
Test: not given
Details: not given
As for `CCN1CCN(CCCOc2cc3ncc(C#N)c(Nc4ccc(Sc5nc(C)c(C)n5CC)c(Cl)c4)c3cc2OC)CC1` [Example 17, 4-({3-Chloro-4-[(1-ethyl-4,5-dimethyl-1H-imidazol-2-yl)sulfanyl]phenyl}amino)-7-[3-(4-ethyl-1-piperazinyl)propoxy]-6-methoxy-3-quinolinecarbonitrile], the melting point is 229 to 230 °C.
